Reference: US8030543B2, “Efficient transformation method for sunflower and oil seeds based on positive selection” (Avesthagen Limited, priority 2006, dated 2011)

Experiments:
[1] = tested on: Helianthus annuus CMS234B split embryonic axis (SEA) explants; assay: Positive selection and regeneration of sunflower SEA explants transformed with pCAMBIA-XI on media containing Xylose; assay type: cell-based; settings: for No of PCR +ve explants / No. of explants Regenerating into shootlets / No. of explants surviving I selection (15 days) / No. of explants surviving I selection (21 days) / No. of explants surviving II selection (15 days) / PCR +ve Regenerants: 100 explants infected, pCAMBIA-XI
Procedure: The seeds were sterilized and the split embryonic axis isolated as described earlier. […] Agrobacterium cells from the glycerol stock were grown overnight in Luria-Bertani (LB) medium containing Rifampicin (10 μg/ml), Gentamycin (10 μg/ml) and Kanamycin (50 μg/ml) and grown exponentially for a period of 4-6 hrs to reach O.D600=1.0. The cells were centrifuged at 6000 rpm for 5 min at 4° C. and then washed and resuspended in MS liquid to reach an O.D600 of 1.0. The excised explants were immediately transferred to a vacuum infiltration flask containing 25 ml of the resuspended culture. Vacuum at 200 atm pressure for 15 min was applied and quickly released. The culture was then drained off completely and explants collected on a blotting paper. […] After two days of co-cultivation, the explants were washed thoroughly with Murashige and Skoog (1972) liquid medium containing Cefotaxime 250 mg/l. […] After the selection period the shoots were subcultured onto Elongation medium containing ½ Strength MS medium. […] The explants surviving first selection were transferred for a second selection to the same medium for 21 days. Explants were subsequently transferred to their respective elongation media. Healthy shootlets were transferred to their respective rooting media.

[2] = tested on: sunflower CMS234B SEA explants; assay: Screening for capability to utilize xylose as carbon source (untransformed SEA explants); assay type: cell-based, Helianthus annuus; settings: MS medium with 0.5 mg/l BAP, 3% Xylose as carbon source
Procedure: In order to determine if sunflower is capable of using xylose as the carbon source, explants were cultured on regeneration media containing sucrose and xylose respectively.

For `O=C[C@H](O)[C@@H](O)[C@H](O)CO` [Xylose, D-Xylose], the “No of PCR +ve explants” value ([1]; Xylose Conc. 15 (mg/l)) was 28, the “No. of explants Regenerating into shootlets” value ([1]; Xylose Conc. 15 (mg/l)) was 20 and the “No. of explants surviving I selection (15 days)” value ([1]; Xylose Conc. 15 (mg/l)) was 80. For the same molecule, the “No. of explants surviving I selection (21 days)” value ([1]; Xylose Conc. 15 (mg/l)) was 70, the “No. of explants surviving II selection (15 days)” value ([1]; Xylose Conc. 15 (mg/l)) was 60 and the “PCR +ve Regenerants” value ([1]; Xylose Conc. 15 (mg/l)) was 10. For the same molecule, the “No of PCR +ve explants” value ([1]; Xylose Conc. 20 (mg/l)) was 30, the “No. of explants Regenerating into shootlets” value ([1]; Xylose Conc. 20 (mg/l)) was 12 and the “No. of explants surviving I selection (15 days)” value ([1]; Xylose Conc. 20 (mg/l)) was 72. For the same molecule, the “No. of explants surviving I selection (21 days)” value ([1]; Xylose Conc. 20 (mg/l)) was 65, the “No. of explants surviving II selection (15 days)” value ([1]; Xylose Conc. 20 (mg/l)) was 57 and the “PCR +ve Regenerants” value ([1]; Xylose Conc. 20 (mg/l)) was 7. The “No of PCR +ve explants” value ([1]; Xylose Conc. 25 (mg/l)) was 28, the “No. of explants Regenerating into shootlets” value ([1]; Xylose Conc. 25 (mg/l)) was 7 and the “No. of explants surviving I selection (15 days)” value ([1]; Xylose Conc. 25 (mg/l)) was 65. For the same molecule, the “No. of explants surviving I selection (21 days)” value ([1]; Xylose Conc. 25 (mg/l)) was 55, the “No. of explants surviving II selection (15 days)” value ([1]; Xylose Conc. 25 (mg/l)) was 40 and the “PCR +ve Regenerants” value ([1]; Xylose Conc. 25 (mg/l)) was 6. For the same molecule, the “No of PCR +ve explants” value ([1]; Xylose Conc. 30 (mg/l)) was 18, the “No. of explants Regenerating into shootlets” value ([1]; Xylose Conc. 30 (mg/l)) was 5 and the “No. of explants surviving I selection (15 days)” value ([1]; Xylose Conc. 30 (mg/l)) was 50. The “No. of explants surviving I selection (21 days)” value ([1]; Xylose Conc. 30 (mg/l)) was 38, the “No. of explants surviving II selection (15 days)” value ([1]; Xylose Conc. 30 (mg/l)) was 20 and the “PCR +ve Regenerants” value ([1]; Xylose Conc. 30 (mg/l)) was 5. The “green tissue of plantlets” value ([1]; plantlets grown on D-Xylose medium, compared to plantlets grown on Hygromycin) was 90%, the “healthy shoots per explants” value ([1]; positive selection on Xylose) was 2-3 and the “time within which explants brown and die” value [2] was 2-3 weeks.
